In patent US20230079819A1, “COMPOUNDS AND USES THEREOF” (Foghorn Therapeutics Inc., priority 2019, published 2023):
Read-outs that look alike come from different tables or passages of the source.

Tests used:
BRM = biological target: T1, BRM (Homo sapiens, UniProt P51531); experiment: ATPase catalytic activity of BRM, ADP-Glo in vitro biochemical assay; conditions: 30 nM BRM, 400 μM ATP
T1 construct: made in house; host or cells: High Five insect cells

BRG-1 = biological target: T2, BRG-1 (Homo sapiens, UniProt P51532); experiment: ATPase catalytic activity of BRG-1, ADP-Glo in vitro biochemical assay; conditions: 30 nM BRG-1, 400 μM ATP
T2 construct: made in house; host or cells: High Five insect cells

[1] = ATPase catalytic activity, read-out: BRM IP50 (μM)*
[2] = ATPase catalytic activity, read-out: BRG1 IP50 (μM)*
[3] = ATPase catalytic activity, read-out: BRM IP50
[4] = ATPase catalytic activity, read-out: BRG1 IP50

T1 sequence (P51531 whole entry): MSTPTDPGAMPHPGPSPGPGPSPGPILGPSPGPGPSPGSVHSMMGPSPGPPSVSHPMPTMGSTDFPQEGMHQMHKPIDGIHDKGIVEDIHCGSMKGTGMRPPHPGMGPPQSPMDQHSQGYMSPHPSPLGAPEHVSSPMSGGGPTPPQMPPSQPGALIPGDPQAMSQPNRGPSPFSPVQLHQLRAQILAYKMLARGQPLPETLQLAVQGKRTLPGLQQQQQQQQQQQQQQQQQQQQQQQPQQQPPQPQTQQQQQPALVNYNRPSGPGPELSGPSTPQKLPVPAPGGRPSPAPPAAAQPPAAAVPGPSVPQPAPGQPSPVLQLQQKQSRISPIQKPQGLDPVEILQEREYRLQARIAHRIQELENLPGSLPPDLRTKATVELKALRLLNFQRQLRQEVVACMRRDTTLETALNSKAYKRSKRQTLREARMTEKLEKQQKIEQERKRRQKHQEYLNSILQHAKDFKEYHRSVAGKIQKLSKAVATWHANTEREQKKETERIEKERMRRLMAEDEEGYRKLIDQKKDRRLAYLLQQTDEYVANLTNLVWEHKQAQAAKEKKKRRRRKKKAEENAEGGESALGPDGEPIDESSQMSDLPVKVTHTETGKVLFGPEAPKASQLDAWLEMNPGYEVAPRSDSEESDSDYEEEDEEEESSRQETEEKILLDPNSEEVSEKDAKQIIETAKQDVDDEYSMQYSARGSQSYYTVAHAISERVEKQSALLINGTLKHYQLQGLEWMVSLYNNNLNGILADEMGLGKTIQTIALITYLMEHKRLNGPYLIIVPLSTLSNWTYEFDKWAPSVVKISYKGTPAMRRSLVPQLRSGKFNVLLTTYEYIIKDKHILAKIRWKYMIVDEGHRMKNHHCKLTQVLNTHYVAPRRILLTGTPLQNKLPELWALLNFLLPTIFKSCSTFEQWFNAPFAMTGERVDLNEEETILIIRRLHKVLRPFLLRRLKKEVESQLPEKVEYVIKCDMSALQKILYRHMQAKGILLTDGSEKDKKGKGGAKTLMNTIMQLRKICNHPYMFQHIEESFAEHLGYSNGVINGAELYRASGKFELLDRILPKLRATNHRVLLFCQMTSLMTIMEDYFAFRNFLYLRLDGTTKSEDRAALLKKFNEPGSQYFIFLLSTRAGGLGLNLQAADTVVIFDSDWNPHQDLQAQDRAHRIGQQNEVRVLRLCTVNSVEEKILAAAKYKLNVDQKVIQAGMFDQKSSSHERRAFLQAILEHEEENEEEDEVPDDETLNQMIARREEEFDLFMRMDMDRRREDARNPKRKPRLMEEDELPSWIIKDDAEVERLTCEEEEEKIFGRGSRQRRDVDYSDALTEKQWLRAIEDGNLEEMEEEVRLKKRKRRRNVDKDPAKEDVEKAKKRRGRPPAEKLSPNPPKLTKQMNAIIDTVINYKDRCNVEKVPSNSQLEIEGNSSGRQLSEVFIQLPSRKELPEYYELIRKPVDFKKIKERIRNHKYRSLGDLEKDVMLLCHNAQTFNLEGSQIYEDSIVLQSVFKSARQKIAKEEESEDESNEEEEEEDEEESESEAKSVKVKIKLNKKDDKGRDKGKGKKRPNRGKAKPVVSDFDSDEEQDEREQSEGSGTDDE
T2 sequence (P51532 whole entry): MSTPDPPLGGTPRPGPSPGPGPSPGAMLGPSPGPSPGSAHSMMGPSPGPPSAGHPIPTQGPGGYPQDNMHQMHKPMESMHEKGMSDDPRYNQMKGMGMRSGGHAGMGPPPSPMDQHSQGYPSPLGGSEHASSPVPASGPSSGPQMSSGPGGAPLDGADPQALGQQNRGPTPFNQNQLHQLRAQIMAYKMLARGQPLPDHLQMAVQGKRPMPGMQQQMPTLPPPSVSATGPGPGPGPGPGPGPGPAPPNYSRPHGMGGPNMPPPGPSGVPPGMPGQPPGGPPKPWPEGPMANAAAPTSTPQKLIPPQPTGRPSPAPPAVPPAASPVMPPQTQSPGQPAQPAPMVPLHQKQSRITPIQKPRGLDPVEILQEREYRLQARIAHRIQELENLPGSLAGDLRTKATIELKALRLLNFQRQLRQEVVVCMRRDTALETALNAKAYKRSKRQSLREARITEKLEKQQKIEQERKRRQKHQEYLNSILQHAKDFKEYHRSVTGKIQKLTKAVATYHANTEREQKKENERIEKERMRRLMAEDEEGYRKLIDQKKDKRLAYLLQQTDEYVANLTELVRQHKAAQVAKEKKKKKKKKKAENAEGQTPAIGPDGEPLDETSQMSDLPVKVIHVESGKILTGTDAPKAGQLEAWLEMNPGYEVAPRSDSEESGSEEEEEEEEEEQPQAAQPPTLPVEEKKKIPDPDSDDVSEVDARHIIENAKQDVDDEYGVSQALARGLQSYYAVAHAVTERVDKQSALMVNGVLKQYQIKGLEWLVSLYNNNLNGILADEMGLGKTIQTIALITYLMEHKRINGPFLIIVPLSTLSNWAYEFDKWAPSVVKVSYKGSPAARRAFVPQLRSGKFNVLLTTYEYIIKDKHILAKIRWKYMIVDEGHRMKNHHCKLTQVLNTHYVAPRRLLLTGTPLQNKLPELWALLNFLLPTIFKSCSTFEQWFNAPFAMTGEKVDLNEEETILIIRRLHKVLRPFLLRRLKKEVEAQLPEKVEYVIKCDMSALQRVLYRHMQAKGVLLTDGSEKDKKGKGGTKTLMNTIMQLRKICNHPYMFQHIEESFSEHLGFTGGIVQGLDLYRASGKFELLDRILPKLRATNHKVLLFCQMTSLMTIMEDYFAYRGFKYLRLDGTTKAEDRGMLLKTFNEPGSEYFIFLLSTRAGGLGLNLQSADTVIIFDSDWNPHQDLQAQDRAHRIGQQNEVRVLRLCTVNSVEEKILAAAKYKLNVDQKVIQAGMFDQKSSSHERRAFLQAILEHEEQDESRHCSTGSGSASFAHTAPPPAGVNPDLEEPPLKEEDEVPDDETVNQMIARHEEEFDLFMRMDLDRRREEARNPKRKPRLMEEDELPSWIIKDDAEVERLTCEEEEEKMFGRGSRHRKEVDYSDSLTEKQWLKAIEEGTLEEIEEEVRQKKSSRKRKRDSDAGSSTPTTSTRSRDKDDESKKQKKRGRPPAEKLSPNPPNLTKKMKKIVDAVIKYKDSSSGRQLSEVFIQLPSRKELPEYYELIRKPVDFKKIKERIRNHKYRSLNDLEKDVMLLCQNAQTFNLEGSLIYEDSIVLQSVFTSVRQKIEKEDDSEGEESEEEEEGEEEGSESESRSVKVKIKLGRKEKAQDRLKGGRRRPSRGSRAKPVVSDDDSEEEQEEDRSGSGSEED

| SMILES | IC50 (BRM; [1]) [µM] | IC50 (BRG-1; [2]) [µM] | IC50 (BRM; [3]) [µM] | IC50 (BRG-1; [4]) [µM] | also measured |
| --- | --- | --- | --- | --- | --- |
| C[C@@H]1CN(c2cccc(-c3csc(NC(=O)CNC(=O)c4ccn(C5COC5)c4)n3)n2)C[C@H](C)O1 [Compound 343] | > 0.01 | > 0.1 |  |  |  |
| COC[C@H](NC(=O)c1ccn(S(C)(=O)=O)c1)C(=O)Nc1nc(-c2ccc3c(c2)CCO3)cs1 [Compound 688] |  |  | > 0.01 | > 0.01 |  |
| COC[C@H](NC(=O)c1ccn(S(C)(=O)=O)c1)C(=O)Nc1nc(-c2ccc(F)c(OC(F)(F)F)c2)cs1 [Compound 592] |  |  | > 0.01 | > 0.01 |  |
| CC(C)[C@H](NC(=O)c1ccn(S(C)(=O)=O)c1)C(=O)Nc1nc(-c2cccc(-c3ccncc3)c2)cs1 [Compound 73, (S)—N-(3-methyl-1-oxo-1-((4-(3-(pyridin-4-yl)phenyl)thiazol-2-yl)amino)butan-2-yl)-1-(methylsulfonyl)-1H-pyrrole-3-carboxamide] | > 0.01 | > 0.01 |  |  |  |
| CCC(=O)N1CCN(c2cccc(-c3csc(NC(=O)CNC(=O)c4ccn(C(C)(C)C)c4)n3)n2)CC1 [Compound 639] |  |  | > 0.01 | > 0.01 |  |
| CS(=O)(=O)n1ccc(C(=O)NCC(=O)Nc2nc(-c3cccc(C(F)(F)F)c3)cs2)c1 [Compound 463] |  |  | > 0.01 | > 0.01 |  |
| COc1cccc(-c2csc(NC(=O)CNC(=O)c3ccn(C(C)(C)C)c3)n2)c1 [Compound 120, 1-(tert-butyl)-N-(2-((4-(3-methoxyphenyl)thiazol-2-yl)amino)-2-oxoethyl)-1H-pyrrole-3-carboxamide] | > 0.01 | > 0.1 |  |  |  |
| Cn1cc2c(n1)CCN(c1cccc(-c3csc(NC(=O)CNC(=O)c4ccn(C(C)(C)C)c4)n3)n1)C2 [Compound 637] |  |  | > 0.01 | > 0.01 |  |
| COCC[C@H](NC(=O)c1ccn(S(C)(=O)=O)c1)C(=O)Nc1nc(-c2cccc(-c3ccncc3)c2)cs1 [Compound 72, (S)—N-(4-methoxy-1-oxo-1-((4-(3-(pyridin-4-yl)phenyl)thiazol-2-yl)amino)butan-2-yl)-1-(methylsulfonyl)-1H-pyrrole-3-carboxamide] | < 0.01 | < 0.01 |  |  |  |
| CC(C)(C)n1ccc(C(=O)NCC(=O)Nc2nc(-c3cccc(N4CCc5ccncc5C4)n3)cs2)c1 [Compound 632] |  |  | > 0.01 | > 0.01 |  |
| COC[C@H](NC(=O)c1ccn(S(C)(=O)=O)c1)C(=O)Nc1nc(-c2cc(F)c3c(c2)OCO3)cs1 [Compound 695] |  |  | < 0.01 | < 0.01 |  |
| N#CC1(n2ccc(C(=O)NCC(=O)Nc3nc(-c4cc(F)cc(OC5CC5)c4)cs3)n2)CC1 [Compound 796] |  |  |  |  | IC50 (BRM; read-out: BRM IP50): > 0.1 µM; IC50 (BRG-1; read-out: BRG1 IP50): > 0.1 µM |
| COC[C@H](NC(=O)c1ccn(S(C)(=O)=O)c1)C(=O)Nc1nc(-c2cccc(-c3cccc(C)n3)c2)cs1 [Compound 356] | > 0.01 | > 0.01 |  |  |  |

Continued, in another order:

| IC50 (BRM; [1]) [µM] | IC50 (BRG-1; [2]) [µM] | IC50 (BRM; [3]) [µM] | IC50 (BRG-1; [4]) [µM] | SMILES | also measured |
| --- | --- | --- | --- | --- | --- |
| > 0.1 | > 0.1 |  |  | CS(=O)(=O)n1ccc(C(=O)NCC(=O)Nc2nc(C3CCCN(c4ccncc4)C3)cs2)c1 (stereo not shown) [Compound 111] |  |
| < 0.01 | < 0.01 |  |  | CS(=O)(=O)n1ccc(C(=O)NCC(=O)Nc2nc(-c3cccc(/C=C/c4ccncc4)c3)cs2)c1 [Compound 150] |  |
|  |  | > 0.01 | > 0.01 | CO[C@H]1C[C@H](c2ccc(-c3csc(NC(=O)CNC(=O)c4ccn(S(C)(=O)=O)c4)n3)cc2)C1 [Compound 531] |  |
| > 0.01 | > 0.01 |  |  | CS(=O)(=O)n1ccc(C(=O)NCC(=O)Nc2nc(-c3cccc(C4(F)CCC4)c3)cs2)c1 [Compound 256] |  |
| > 0.01 | > 0.01 |  |  | CS(=O)(=O)n1ccc(C(=O)NCC(=O)Nc2nc(-c3cccc(N4CCCC5(COC5)C4)c3)cs2)c1 [Compound 204] |  |
| > 0.1 | > 0.1 |  |  | CS(=O)(=O)n1ccc(C(=O)NCC(=O)Nc2nc(-c3cccc(N4CCC(CO)(C(F)(F)F)C4)c3)cs2)c1 (stereo not shown) [Compound 169] |  |
|  |  | > 0.01 | > 0.01 | CO[C@H]1C[C@H](c2cccc(-c3csc(NC(=O)CNC(=O)c4ccn(S(C)(=O)=O)c4)n3)c2)C1 [Compound 530] |  |
